“Also recorded” adds a separate entry of the source. Like-named read-outs stand apart in the source and are kept apart here.
How the values were obtained:
[1] = biological target: T1, ROS methyltransferase (bovine retinal rod outer segment S-adenosyl-L-methionine-dependent methyltransferase) (Bos taurus, UniProt A0AAA9SD88); assay: ROS methyltransferase assay: compounds as substrates (Km) or inhibitors (Ki) of AFC methylation; assay type: biochemical; settings: for substrate activity for ROS methyltransferase / competitive inhibition of AFC methylation / inhibition of methyltransferase activity towards AFC: in words
T1 construct: utilizing ROS membranes as the source of methyltransferase enzyme; tissue Wanda Lawson Co., Lincoln, Nebr; (frozen bovine retinas); host or cells: bovine retinal rod outer segment (ROS) membranes
T1 sequence (A0AAA9SD88 1-284): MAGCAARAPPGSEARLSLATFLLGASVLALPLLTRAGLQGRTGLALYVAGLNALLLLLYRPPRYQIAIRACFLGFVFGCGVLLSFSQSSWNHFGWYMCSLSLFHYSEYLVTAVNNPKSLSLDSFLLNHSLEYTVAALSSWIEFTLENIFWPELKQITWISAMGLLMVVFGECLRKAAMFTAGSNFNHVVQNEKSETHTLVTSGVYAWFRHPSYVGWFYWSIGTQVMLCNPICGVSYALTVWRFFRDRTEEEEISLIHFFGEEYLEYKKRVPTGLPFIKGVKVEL
Description: Standard assays may be used to determine Km for substrates and Ki for inhibitors. […] The values of Ki and Km are calculated from kinetic assays by conventional means (Fersht, Enzyme Structure and Mechanism, W. H. Freeman and Co., New York, 1984). Examples are provided below to illustrate suitable assays, and are not intended to limit the invention.
One suitable assay of methylation functions uses bovine retinal rod outer segment (ROS) methyltransferase and a natural substrate, transducin. […] Another suitable assay uses N-acetyl-S-farnesylcysteine as a substrate for ROS methyltransferase.
The bovine retinal transducin γ subunit has a carboxyl-terminal --CAAX motif and undergoes a farnesylation reaction similar to that observed on ras (Lai et al., Proc. Natl. Acad. Sci. USA 87:7673, 1990; Fukada et al., Nature 346:658, 1990).
(§1) Frozen bovine retinas (Wanda Lawson Co., Lincoln, Nebr.) were used to prepare ROS membranes depleted of peripheral proteins using a modification of the procedure of Wessling-Resnick et al. (J. Biol. Chem. 262:3697, 1987). Briefly, ROS membranes were washed with low ionic strength buffer and 100μM GTP, resuspended in 50 mM Hepes-Na (pH 7.4), 100 mM NaCl, 5 mM MgCl2, 0.1 mM phenylmethylsulfonyl fluoride, 0.1 mM dithiothreitol (buffer A) and stored in small aliquots at -80° C. until used. Transducin was isolated by disrupting ROS membranes by passing the membranes through a narrow needle and washing the disrupted membranes in a series of centrifugation steps as described by Wessling-Resnick et al. (J. Biol. Chem. 262:3697, 1987). Finally transducin was eluted from the membranes with 100μM GTP. The transducin-enriched supernatant was concentrated using Centriprep (Amicon).
(§2) For initial studies, the reaction mixture contained 20 μCi of S-adenosyl-[methyl-^3 H] methionine ([^3 H]SAM) (2.34 μM, Amersham) and an aliquot of ROS (120μg of total protein) or of washed ROS membranes (80μg of total protein) in 100 μl of buffer A. Purified transducin was added to this mixture to a concentration of 5 μM. AFC, N-acetylcysteine, or AFC methylester was added in 2 μl of dimethyl sulfoxide to give a final concentration of 20 μM, and the reaction was carried out at 37° C.
The above-described methyltransferase assay was used to analyze the analogs described above.

HL-60 cells = assay: Inhibition of HL-60 cell proliferation (trypan blue dye exclusion count); assay type: cell-based; settings: FIG. 2; in words
Description: FTA, FTP, AFHC and AFC were tested for their ability to inhibit cell growth as follows.
HL-60 cells (ATCC CCL 240, American Type Culture Collection, Rockville, Md.) which harbor an activated ras gene were grown in RPMI medium (Gibco/BRL, Bethesda, Md.) supplemented with 10-15% fetal calf serum, L-glutamine, penicillin and streptomycin. These cells were treated with various concentrations of FTA, FTP, AFHC, or AFC dissolved in dimethyl sulfoxide (DMSO) or with DMSO only (In all experiments the final DMSO concentration was 1% or less). Treated ans untreated cells were incubated under standard culture conditions for several days. Cells were counted manually at 24 hour intervals using a trypan blue dye exclusion assay which counts only live, intact cells.

cell growth = settings: Maltese et al., 1985; cited from earlier work
ras proteins = settings: Hancock et al., 1989; cited from earlier work
[2] = tested on: cellular synthesis of mevalonic acid; settings: in words; cited from earlier work
[3] = biological target: T2, methyltransferase activity present in ROS membrane (Bos taurus, UniProt A0AAA9SD88); assay: In vitro [3H]SAM methylation of proteins by ROS membrane methyltransferase; assay type: biochemical, bovine; settings: in words
T2 construct: substrates transducin gamma, 23-29 kDa small G proteins, AFC
T2 sequence (A0AAA9SD88 1-284): as above
Description: as §1, §2
Incubation of bovine ROS with [^3 H]SAM results in the radioactive labeling of polypeptides with apparent molecular masses of 88, 60, 23-29, and 6 kDa. The methylation of the 88-kDa protein (α subunit of retinal phosphodiesterase) and of the 23- to 29-kDa polypeptides has already been reported (Swanson et al., J. Biol. Chem. 258:10599, 1983; Ota et al., J. Biol. Chem. 264:12879, 1989). The 6-kDa polypeptide coincides with Tγ in SDS/polyacrylamide gels. Moreover, incubation of purified transducin with extensively washed ROS and [^3 H]SAM results in the labeling of the 6-kDa polypeptide and the membrane-associated 23- to 29-kDa proteins. […]

[4] = tested on: methyltransferase activity in HL-60 cells; assay: Methylation of AFC by activity present in HL-60 cell membrane; assay type: biochemical; settings: in words
[5] = ROS membranes as source of enzyme, read-out: KM for methylation
[6] = Table 1, substrates, read-out: Km
[7] = Table 1, conventional inhibitors, read-out: Ki
[8] = calculated, read-out: Ki for inhibition of AFC methylation

In the case of `CC(C)=CCC/C(C)=C/CC/C(C)=C/CSCCC(=O)O` [FTP, 3-farnesylthiopropionic acid], the Km [1, 5] is reported as 13.7 µM, the Km [1, 6] is reported as 14 µM and the “substrate activity for ROS methyltransferase” value (from here on “substrate activity”) [1] is reported as “active substrate; also recorded: also a substrate”. The “inhibition of proliferation of HL-60 cells” value (shortened to “inhibition … of HL-60 cells”) (HL-60 cells) was “can inhibit proliferation”.
With `CC(C)=CCC/C(C)=C/CC/C(C)=C/CSC[C@H](NC(=O)c1ccccc1)C(=O)O` [N-benzoyl-S-farnesylcysteine] the “status as substrate (in place of Km)” value ([1]; Table 1) was “substrate”.
With `CSC(CSC/C=C(\C)CC/C=C(\C)CCC=C(C)C)=NO` [2-farnesylthio-S-methyl] the “status as conventional inhibitor (in place of Ki)” value (shortened to “status as conventional inhibitor”) ([1]; Table 1) was “inhibitor”.
With `CC(C)=CCC/C(C)=C/CC/C(C)=C/CSCCC#N` [3-farnesylthiopropionitrile] the “status as conventional inhibitor” value ([1]; Table 1) was “inhibitor”.
For `CC(C)=CCC/C(C)=C/CC/C(C)=C/COCCC(=O)O` [3-farnesyloxypropionic acid], the Km [1, 6] was 26 µM.
In the case of `CC(=O)N[C@@H](C[S+]([O-])C/C=C(\C)CC/C=C(\C)CCC=C(C)C)C(=O)O` (stereo partly drawn) [AFCS, N-acetyl-S-oxo-farnesylcysteine], the Ki [1, 7] is reported as 13.2 µM, the Ki [1, 8] is reported as 11.6 µM and the “methylation of AFCS” value ([1]; even at 500 μM) is reported as “not methylated”. The “competitive inhibition of AFC methylation” value [1] was “potent competitive inhibitors” and the “substrate activity” value [1] was “lack of activity; also recorded: not substrates”.
For `C=C(CSC/C=C(\C)CC/C=C(\C)CCC=C(C)C)C(=O)O` [3-farnesylthio-2-methylenepropionic acid], the “status as substrate (in place of Km)” value ([1]; Table 1) was “substrate”.
Compound `CC(=O)NC(C[Se]C/C=C(\C)CC/C=C(\C)CCC=C(C)C)C(=O)O` (racemic) [N-acetyl-Se-farnesyl-D,L-cysteine] has a Km ([1]; Table 1, substrates) of 51 µM.
With disodium 2-farnesylthioethyl phosphate the “status as conventional inhibitor” value ([1]; Table 1) was “inhibitor”.
With `CC(C)=CCC/C(C)=C/CC/C(C)=C/CSCC[N+](=O)[O-]` [2-farnesylthio-1-nitroethane] the “status as conventional inhibitor” value ([1]; Table 1) was “inhibitor”.
For N-acetylgeranylgeranylcysteine, the “status as substrate (in place of Km)” value ([1]; Table 1) was “substrate”.
For `CC[C@H](C)C(=O)O[C@H]1C[C@@H](C)C=C2C=C[C@H](C)[C@H](CC[C@@H]3C[C@@H](O)CC(=O)O3)[C@H]21` [Mevinolin], the cell growth block (cell growth) is given as “blocked in cell growth in the G1 phase and the G2/M phase”, the “post-translational processing of ras proteins” value (ras proteins) is given as “affects” and the ras membrane localization (ras proteins) is given as “interferes”. The “cellular synthesis of mevalonic acid” value [2] was “inhibits”.
In the case of `CC(=O)N[C@@H](CCSC/C=C(\C)CC/C=C(\C)CCC=C(C)C)C(=O)O` [AFHC, N-acetyl-S-farnesylhomocysteine], the Ki [1, 7] is reported as 36.3 µM, the Ki [1, 8] is reported as 30.2 µM and the “competitive inhibition of AFC methylation” value [1] is reported as “potent competitive inhibitors”. For the same compound, the “substrate activity” value [1] was “not a substrate; also recorded: not substrates” and the “inhibition … of HL-60 cells” value (HL-60 cells) was “can inhibit proliferation”.
With `CC(C)=CCC/C(C)=C/CC/C(C)=C/CSCC(N)C(=O)O` (stereo not drawn) [S-farnesylcysteine] the “status as conventional inhibitor” value ([1]; Table 1) was “inhibitor”.
For `CC(=O)N[C@@H](CSC/C=C(\C)CC/C=C(\C)CCC=C(C)C)C(=O)O` [AFC, N-acetyl-S-farnesylcysteine], the Km [1, 5] was 23 µM, the Km [1, 6] was 23 µM and the “substrate activity” value [1] was “acts as a substrate; also recorded: serves as a substrate; also recorded: can serve as a substrate”. The “incorporation of label by [3H]SAM into proteins” value ([3]; ROS) was “reduced incorporation of label”, the “inhibition … of HL-60 cells” value (HL-60 cells) was “can inhibit proliferation” and the “methylation by activity in membrane of HL-60 cells” value [4] was “can be methylated”.
With `CC(=O)N[C@@H](CSC/C=C(\C)CCC=C(C)C)C(=O)O` [AGC, N-acetyl-S-geranyl-L-cysteine] the “status as substrate (in place of Km)” value ([1]; Table 1) was “substrate” and the “substrate activity” value [1] was “exceedingly weak substrate; also recorded: marginal activity”.
Compound `CC(C)=CCC/C(C)=C/CC/C(C)=C/CSC(C)CC(=O)O` (stereo not drawn) [3-farnesylthiobutyric acid] has a Ki [1, 7] of 30 to 40 µM.
In the case of `CC(C)=CCC/C(C)=C/CC/C(C)=C/C[Se]CCC(=O)O`, the Ki [1] is reported as 29 µM.
In the case of `Nc1ncnc2c1ncn2[C@@H]1O[C@H](CSCC[C@H](N)C(=O)O)[C@@H](O)[C@H]1O` [SAH, reference compound], the “inhibition of methyltransferase activity towards AFC” value [1] is reported as “inhibited” and the “inhibition of methyltransferase activity present in ROS membrane” value [3] is reported as “inhibited”.
In the case of `Nc1ncnc2c1ncn2[C@@H]1O[C@H](C[C@@H](N)CC[C@H](N)C(=O)O)[C@@H](O)[C@H]1O` [sinefungin, reference compound], the “inhibition of methyltransferase activity towards AFC” value [1] is reported as “inhibited” and the “inhibition of methyltransferase activity present in ROS membrane” value [3] is reported as “inhibited”.
In the case of `CC(=O)N[C@@H](CS)C(=O)O` [N-acetylcysteine, reference compound], the “substrate activity” value [1] is reported as “not a substrate”.
For `CC(C)=CCC/C(C)=C/CC/C(C)=C/CSCCC(N)=O` [3-farnesylthiopropionamide], the “status as conventional inhibitor” value ([1]; Table 1) was “inhibitor”.
In the case of `CC(=O)N[C@H](CSC/C=C(\C)CC/C=C(\C)CCC=C(C)C)C(=O)O` [N-acetyl-S-farnesyl-D-cysteine], the Km [1, 6] is reported as 42 µM.
With `CCCCCCC(CC(=O)O)SC/C=C(\C)CC/C=C(\C)CCC=C(C)C` (stereo not drawn) [3-farnesylthiononanoic acid] the “status as conventional inhibitor” value ([1]; Table 1) was “inhibitor”.
For `CC(C)=CCC/C(C)=C/CC/C(C)=C/C[S+]([O-])CC(=O)O` (stereo not drawn) [2-farnesylthioacetic acid sulfoxide], the Ki [1, 7] was < 10 µM.
With “3-farnesylthiocyclohexanecarboxylic acid” the “status as conventional inhibitor” value ([1]; Table 1) was “inhibitor”.
With `CC(C)=CCC/C(C)=C/CC/C(C)=C/CS/C=C/C(=O)O` [3-farnesylthio-trans-acrylic acid] the Ki [1, 7] was 37 µM.
`CC(C)=CCC/C(C)=C/CC/C(C)=C/CS/C=C\C(=O)O` [3-farnesylthio-cis-acrylic acid] gave a Ki [1, 7] of 40 µM.
For `CC(=O)N[C@@H](CSCCC(C)CCCC(C)CCCC(C)C)C(=O)O` (stereo partly drawn) [ATC, N-acetyl-S-(3,7,11-trimethyldodecanyl)-L-cysteine], the “substrate activity” value [1] was “inactive as a substrate; also recorded: lack of activity”.
Compound `CC(C)=CCC/C(C)=C/CC/C(C)=C/CSCC(C)C(=O)O` (stereo not drawn) [2-methyl-3-farnesylthiopropionic acid] has a Km [1, 6] of 21 µM.
For `C[S+](CC[C@H](N)C(=O)O)C[C@H]1O[C@@H](n2cnc3c(N)ncnc32)[C@H](O)[C@@H]1O` (stereo partly drawn) [AdoMet, S-adenosyl-L-methionine, reference compound], the Km ([1]; AFC system, ROS membranes, read-out: apparent KM) was 2 µM.
For `CC(C)=CCC/C(C)=C/CC/C(C)=C/CSCC(C)[N+](=O)[O-]` (stereo not drawn) [3-farnesylthio-2-nitropropane], the “status as conventional inhibitor” value ([1]; Table 1) was “inhibitor”.

From patent publication US5202456A, “Compounds for inhibition of protein methylation” (The President and Fellows of Harvard College, priority 1991, dated 1993)
